# Test results as given in patent US9096548B2, “Pyrazine amide compounds” (Boehringer Ingelheim International GmbH, priority 2013, dated 2015).
# pIC50: −log10 of the molar value. Structures can show the parent of a compound that is named as a salt.
# Molecular target: T1, ENaC (Epithelial Sodium Channel) (Mus musculus, UniProt Q61180+Q9WU38+Q9WU39)
# T1 construct: Mouse kidney M−1 cells were cultivated in DMEM; endogenous in cells; host or cells: Mouse kidney M-1 cells, cultivated with dexamethasone on transwell filters
# T1 sequence (Q61180 1-699): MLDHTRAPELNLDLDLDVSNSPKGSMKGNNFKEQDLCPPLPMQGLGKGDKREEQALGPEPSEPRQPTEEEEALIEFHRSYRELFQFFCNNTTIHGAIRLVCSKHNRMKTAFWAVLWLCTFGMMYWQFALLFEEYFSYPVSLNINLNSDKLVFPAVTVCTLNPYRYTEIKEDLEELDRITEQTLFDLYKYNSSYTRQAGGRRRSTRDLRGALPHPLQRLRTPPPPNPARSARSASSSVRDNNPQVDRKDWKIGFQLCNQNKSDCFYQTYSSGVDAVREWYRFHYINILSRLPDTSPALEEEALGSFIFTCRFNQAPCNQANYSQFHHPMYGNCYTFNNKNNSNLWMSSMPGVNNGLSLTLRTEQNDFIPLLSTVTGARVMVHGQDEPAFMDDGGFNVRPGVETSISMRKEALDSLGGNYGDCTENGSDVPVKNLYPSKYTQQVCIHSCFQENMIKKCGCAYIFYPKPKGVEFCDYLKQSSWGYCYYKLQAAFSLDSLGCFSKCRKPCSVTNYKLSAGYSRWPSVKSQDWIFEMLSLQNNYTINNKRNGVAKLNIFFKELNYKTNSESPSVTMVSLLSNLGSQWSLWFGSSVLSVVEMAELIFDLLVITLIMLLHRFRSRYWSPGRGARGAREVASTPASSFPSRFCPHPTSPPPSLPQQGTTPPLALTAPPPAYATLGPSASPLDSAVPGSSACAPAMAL
# T1 sequence (Q9WU38 1-638): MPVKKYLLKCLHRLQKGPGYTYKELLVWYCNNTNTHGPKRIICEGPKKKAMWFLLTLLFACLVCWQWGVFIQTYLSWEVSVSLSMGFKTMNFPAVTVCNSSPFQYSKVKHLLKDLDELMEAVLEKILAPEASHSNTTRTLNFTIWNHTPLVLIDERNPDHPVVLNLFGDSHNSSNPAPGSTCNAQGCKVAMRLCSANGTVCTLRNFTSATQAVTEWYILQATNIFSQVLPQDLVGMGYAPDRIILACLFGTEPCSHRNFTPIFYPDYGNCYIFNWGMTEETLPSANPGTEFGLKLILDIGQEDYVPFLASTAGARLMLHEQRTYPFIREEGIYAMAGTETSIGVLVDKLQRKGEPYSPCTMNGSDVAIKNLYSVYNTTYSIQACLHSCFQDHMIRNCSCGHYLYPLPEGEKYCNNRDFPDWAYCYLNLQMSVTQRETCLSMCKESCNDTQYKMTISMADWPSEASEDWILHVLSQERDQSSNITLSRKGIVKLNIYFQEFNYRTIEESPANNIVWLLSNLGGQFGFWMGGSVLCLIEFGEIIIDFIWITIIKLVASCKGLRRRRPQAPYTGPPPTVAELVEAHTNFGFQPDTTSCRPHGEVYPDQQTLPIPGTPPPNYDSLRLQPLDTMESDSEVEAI
# T1 sequence (Q9WU39 1-655): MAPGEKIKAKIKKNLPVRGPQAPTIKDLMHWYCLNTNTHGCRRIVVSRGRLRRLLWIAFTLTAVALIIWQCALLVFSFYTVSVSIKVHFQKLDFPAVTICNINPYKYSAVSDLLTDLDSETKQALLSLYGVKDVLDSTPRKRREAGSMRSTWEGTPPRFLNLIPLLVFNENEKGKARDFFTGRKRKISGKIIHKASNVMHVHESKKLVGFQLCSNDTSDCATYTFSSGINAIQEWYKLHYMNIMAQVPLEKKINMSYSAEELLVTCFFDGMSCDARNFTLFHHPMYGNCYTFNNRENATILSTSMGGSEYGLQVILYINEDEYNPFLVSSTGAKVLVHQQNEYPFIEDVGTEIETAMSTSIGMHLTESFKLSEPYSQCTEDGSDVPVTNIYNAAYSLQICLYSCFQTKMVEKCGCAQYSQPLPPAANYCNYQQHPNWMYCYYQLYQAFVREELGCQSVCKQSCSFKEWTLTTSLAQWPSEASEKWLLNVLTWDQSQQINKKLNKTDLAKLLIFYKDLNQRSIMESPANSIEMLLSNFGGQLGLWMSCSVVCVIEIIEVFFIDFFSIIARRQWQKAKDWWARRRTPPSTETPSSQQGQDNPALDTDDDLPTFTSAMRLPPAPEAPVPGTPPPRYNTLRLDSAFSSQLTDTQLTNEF
# Test: Ussing Chamber assay (short circuit current, amiloride sensitive I_SC)
# Format: cell-based
# Conditions: Ussing chamber, mouse kidney M-1 cells, short circuit current, compound added to the apical solution; read-out: IC50
# Outline: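 Mouse kidney M-1 cells grown 10–12 days on filters with 5 μM dexamethasone, measured in Caco-2 transport buffer at 37° C under voltage clamp. Compound applied apically at 3 μM or 1-3-10 μM; 3 μM amiloride added at end. Short circuit current inhibition given as percent of amiloride effect or IC50.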
row,SMILES,pIC50
1,Nc1nc(N)c(C(=O)N[C@H]2CCC[N+](CCCc3ccc(OCC(=O)NCc4cccnc4)cc3)(CCCc3ccc(OCC(=O)NCc4cccnc4)cc3)C2)nc1Cl [Example 6.57],8.40
2,Nc1nc(N)c(C(=O)N[C@H]2CCC[N+](CCCc3ccc(OCC(=O)N4CCOCC4)cc3)(CCCc3ccc(OCC(=O)N4CCOCC4)cc3)C2)nc1Cl [Example 6.58],7.14
3,COCCNC(=O)COc1ccc(CCC[N+]2(CCCc3ccc(OCC(=O)NCCOC)cc3)CCC[C@H](NC(=O)c3nc(Cl)c(N)nc3N)C2)cc1 [Example 6.59],7.92
4,COCCCNC(=O)COc1ccc(CCC[N+]2(CCCc3ccc(OCC(=O)NCCCOC)cc3)CCC[C@H](NC(=O)c3nc(Cl)c(N)nc3N)C2)cc1 [Example 6.60],8.15
5,CN(CCO)C(=O)COc1ccc(CCC[N+]2(CCCc3ccc(OCC(=O)N(C)CCO)cc3)CCC[C@H](NC(=O)c3nc(Cl)c(N)nc3N)C2)cc1 [Example 6.61],6.97
6,Nc1nc(N)c(C(=O)N[C@H]2CCC[N+](CCCc3ccc(OCC(=O)NCc4ccccn4)cc3)(CCCc3ccc(OCC(=O)NCc4ccccn4)cc3)C2)nc1Cl [Example 6.62],8.30
7,Nc1nc(N)c(C(=O)N[C@H]2CCC[N+](CCCc3ccc(OCC(=O)NCCN4CCOCC4)cc3)(CCCc3ccc(OCC(=O)NCCN4CCOCC4)cc3)C2)nc1Cl [Example 6.63],7.38
8,Nc1nc(N)c(C(=O)N[C@H]2CCC[N+](CCCc3ccc(OCC(=O)NCc4ccncc4)cc3)(CCCc3ccc(OCC(=O)NCc4ccncc4)cc3)C2)nc1Cl [Example 6.64],8.40
9,CN(CC#N)C(=O)COc1ccc(CCC[N+]2(CCCc3ccc(OCC(=O)N(C)CC#N)cc3)CCC[C@H](NC(=O)c3nc(Cl)c(N)nc3N)C2)cc1 [Example 6.65],7.03
10,Nc1nc(N)c(C(=O)N[C@H]2CCC[N+](CCCc3ccc(OCC(=O)N(CCO)CCO)cc3)(CCCc3ccc(OCC(=O)N(CCO)CCO)cc3)C2)nc1Cl [Example 6.66],6.92
11,CP(C)(=O)CNC(=O)COc1ccc(CCC[N+]2(CCCc3ccc(OCC(=O)NCP(C)(C)=O)cc3)CCC[C@H](NC(=O)c3nc(Cl)c(N)nc3N)C2)cc1 [Example 6.67],6.88

# Same assay, conditions: Ussing chamber, mouse kidney M-1 cells, short circuit current; unit inferred; read-out: IC50
row,SMILES,pIC50
1,"COC(=O)C[C@@H](C[N+](C)(CCCc1ccc(OC)cc1)CCCc1ccc(OC)cc1)NC(=O)c1nc(Cl)c(N)nc1N [Example 7, {(S)-2-[(3,5-Diamino-6-chloro-pyrazine-2-carbonyl)-amino]-3-methoxycarbonyl-propyl}-bis-[3-(4-methoxy-phenyl)-propyl]-methyl-ammonium chloride]",7.68
2,"COC(=O)C[C@H](C[N+](C)(CCCc1ccc(OC)cc1)CCCc1ccc(OC)cc1)NC(=O)c1nc(Cl)c(N)nc1N [Example 7.1, {(R)-2-[(3,5-Diamino-6-chloro-pyrazine-2-carbonyl)-amino]-3-methoxycarbonyl-propyl}-bis-[3-(4-methoxy-phenyl)-propyl]-methyl-ammonium chloride]",5.89
3,"COC(=O)COc1ccc(CCC[N+]2(CCCc3ccc(OCC(=O)O)cc3)CCCC(NC(=O)c3nc(Cl)c(N)nc3N)C2)cc1 (stereo not shown) [Example 8, 1-[3-(4-Carboxymethoxy-phenyl)-propyl]-3-[(3,5-diamino-6-chloro-pyrazine-2-carbonyl)amino]-1-[3-(4-methoxycarbonylmethoxy-phenyl)-propyl]-piperidinium trifluoroacetate]",6.78
4,"COC(=O)COc1ccc(CCC[N+]2(CCCc3ccc(OCC(=O)NCCN(C)C)cc3)CCCC(NC(=O)c3nc(Cl)c(N)nc3N)C2)cc1 (stereo not shown) [Example 8.1, 3-[(3,5-Diamino-6-chloro-pyrazine-2-carbonyl)-amino]-1-(3-{4-[(2-dimethylaminoethylcarbamoyl)-methoxy]-phenyl}-propyl)-1-[3-(4-methoxycarbonylmethoxy-phenyl)-propyl]-piperidinium chloride hydrochloride]",7.07
5,"COC(=O)COc1ccc(CCC[N+]2(CCCc3ccc(OCC(=O)NCCOCCOCCO)cc3)CCCC(NC(=O)c3nc(Cl)c(N)nc3N)C2)cc1 (stereo not shown) [Example 8.2, 3-[(3,5-Diamino-6-chloro-pyrazine-2-carbonyl)-amino]-1-{3-[4-({2-[2-(2-hydroxy-ethoxy)ethoxy]-ethylcarbamoyl}-methoxy)-phenyl]-propyl}-1-[3-(4-methoxycarbonylmethoxy-phenyl)-propyl]-piperidinium chloride]",6.43
6,"Nc1nc(N)c(C(=O)NC2CCC[N+](CCCc3ccc(OCCOCCOCCO)cc3)(CCCc3ccc(OCCOCCOCCO)cc3)C2)nc1Cl (stereo not shown) [Example 9, 3-[(3,5-Diamino-6-chloro-pyrazine-2-carbonyl)-amino]-1,1-bis-[3-(4-{2-[2-(2-hydroxyethoxy)-ethoxy]-ethoxy}-phenyl)-propyl]-piperidinium chloride]",7.02
7,"Nc1nc(N)c(C(=O)NC2CCC[N+](CCCc3ccc(OCCOCCOCCOCCOCCO)cc3)(CCCc3ccc(OCCOCCOCCOCCOCCO)cc3)C2)nc1Cl (stereo not shown) [Example 9.1, 3-[(3,5-Diamino-6-chloro-pyrazine-2-carbonyl)-amino]-1,1-bis-(3-{4-[2-(2-{2-[2-(2-hydroxy-ethoxy)-ethoxy]-ethoxy}-ethoxy)-ethoxy]-phenyl}-propyl)-piperidinium chloride]",6.95
8,"CCOc1ccc(CCC[N+]2(CCCc3ccc(OCC)cc3)CCCC(NC(=O)c3nc(Cl)c(N)nc3N)C2)cc1 (stereo not shown) [Example 9.2, 3-[(3,5-Diamino-6-chloro-pyrazine-2-carbonyl)-amino]-1,1-bis-[3-(4-ethoxy-phenyl)-propyl]-piperidinium chloride]",7.59
9,"COCCOc1ccc(CCC[N+]2(CCCc3ccc(OCCOC)cc3)CCCC(NC(=O)c3nc(Cl)c(N)nc3N)C2)cc1 (stereo not shown) [Example 9.3, 3-[(3,5-Diamino-6-chloro-pyrazine-2-carbonyl)-amino]-1,1-bis-{3-[4-(2-methoxy-ethoxy)-phenyl]-propyl}-piperidinium chloride]",7.66
10,"Nc1nc(N)c(C(=O)N[C@H]2CCC[N+](CCCc3ccc(OCCOCCOCCOCCO)cc3)(CCCc3ccc(OCCOCCOCCOCCO)cc3)C2)nc1Cl [Example 9.4, 3-[(3,5-Diamino-6-chloro-pyrazine-2-carbonyl)-amino]-1,1-bis-{3-[4-(2-{2-[2-(2-hydroxy-ethoxy)-ethoxy]-ethoxy}-ethoxy)-phenyl]-propyl}-piperidinium chloride]",7.17

# Same assay, conditions: Ussing chamber, mouse kidney M-1 cells, short circuit current; value printed in the example text with μM; read-out: IC50
row,SMILES,IC50
1,"COc1ccc(CCC[N+](C)(CCCc2ccc(OC)cc2)C[C@H](CC(=O)O)NC(=O)c2nc(Cl)c(N)nc2N)cc1 [Example 7.2, {(S)-3-Carboxy-2-[(3,5-diamino-6-chloro-pyrazine-2-carbonyl)-amino]-propyl}-bis-[3-(4-methoxy-phenyl)-propyl]-methyl-ammonium]",1.38 µM
